Reference: PMC12044245 (Emerging Infectious Diseases, 2025)

What was measured:
Format in all cases: biochemical
[1] = target: NA (neuraminidase) of A/Yamagata/336/2023 (Influenza A virus, UniProt C3W5S3)
[2] = target: NA (neuraminidase) of A/Yamagata/135/2023 (Influenza A virus, UniProt C3W5S3)
[3] = target: NA (neuraminidase) of A/Yamagata/177/2023 (Influenza A virus, UniProt C3W5S3)
[4] = target: NA (neuraminidase) of A/Yamagata/292/2023 (Influenza A virus, UniProt C3W5S3)
[5] = target: NA (neuraminidase) of A/Yamagata/127/2023 (Influenza A virus, UniProt C3W5S3)
[6] = target: NA (neuraminidase) of A/Yamagata/122/2023 (Influenza A virus, UniProt C3W5S3)
[7] = target: NA (neuraminidase) of A/Yamagata/104/2024 (Influenza A virus, UniProt C3W5S3)
[8] = target: NA (neuraminidase) of A/Yamagata/312/2023 (Influenza A virus, UniProt C3W5S3)

CCC(CC)[C@H](NC(C)=O)[C@@H]1[C@H](O)[C@@H](C(=O)O)C[C@H]1N=C(N)N [Peramivir, peramivir]
IC50 [1]: 0.09 nM
IC50 [2]: 0.08 nM
IC50 [3]: 0.06 nM
IC50 [4]: 0.09 nM
IC50 [5]: 0.08 nM
IC50 [6]: 0.08 nM
IC50 [7]: 0.09 nM
IC50 [8]: 0.11 nM
